# According to patent US9133168B2, “Pyrimidine derivatives, preparation thereof, and pharmaceutical use thereof as akt(pkb) phosphorylation inhibitors” (SANOFI, priority 2010, dated 2015):
# System: AKT protein phosphorylated on serine 473 (P-AKT-S473) in PC3 human prostate carcinoma cells
# Assay: pAKT expression in PC3 human prostate carcinoma cells, MSD Multi-spot Biomarker detection (Test A)
# Assay type: cell-based
# Settings: 1 to 2 h incubation, P-AKT-S473, absolute IC50, mean of two independent experiments
# Procedure, shortened: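 Lysate pAKT-S473 measured by electrochemiluminescent sandwich immunoassay; inhibition versus cell-free background and DMSO-only wells, IC50 averaged over two experiments.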
"IC50 (Homo sapiens, PC-3, PC3 cells) [nM]",IC50 (PC3 cells) [nM],Compound
106,–,"Cn1c(CC(=O)N2CC3(CCOCC3)c3ccccc32)nc(N2CCOCC2)cc1=O [Example 22d, 3-methyl-6-(morpholin-4-yl)-2-[2-oxo-2-(2′,3′,5′,6′-tetrahydrospiro[indole-3,4′-pyran]-1(2H)-yl)ethyl]pyrimidin-4(3H)-one]"
53,–,"CC1Cc2c(F)cccc2N1C(=O)Cc1nc(N2CCOCC2)cc(=O)n1C (single isomer, unassigned; (-)) [Example 29c, (−)-2-{2-[4-fluoro-2-methyl-2,3-dihydro-1H-indol-1-yl]-2-oxoethyl}-3-methyl-6-(morpholin-4-yl)pyrimidin-4(3H)-one]"
24,–,"N#Cn1c(CC(=O)N2CCc3ccccc32)nc(N2CCOCC2)cc1=O [Example 42d, 2-[2-(2,3-dihydro-1H-indol-1-yl)-2-oxoethyl]-4-(morpholin-4-yl)-6-oxopyrimidine-1(6H)-carbonitrile]"
–,55,"CC1Cc2c(Cl)cccc2N1C(=O)Cc1nc(N2CCOCC2)cc(=O)n1C (single isomer, unassigned; (+)) [Example 33c, (+)-2-{2-[4-chloro-2-methyl-2,3-dihydro-1H-indol-1-yl]-2-oxoethyl}-3-methyl-6-(morpholin-4-yl)pyrimidin-4(3H)-one]"
40,–,"CC1Cc2ccc(F)cc2N1C(=O)Cc1nc(N2CCOCC2)c(F)c(=O)[nH]1 (stereo not drawn) [Example 32a, 5-fluoro-2-[2-((−)-6-fluoro-2-methyl-2,3-dihydroindol-1-yl)-2-oxoethyl]-6-morpholin-4-yl-3H-pyrimidin-4-one]"
–,242,"CC1Cc2c(Cl)cccc2N1C(=O)Cc1nc(N2CCOCC2)cc(=O)n1C (single isomer, unassigned; (-)) [Example 34c, (−)-2-{2-[4-chloro-2-methyl-2,3-dihydro-1H-indol-1-yl]-2-oxoethyl}-3-methyl-6-(morpholin-4-yl)pyrimidin-4(3H)-one]"
51,–,"O=C(Cc1nc(N2CCOCC2)cc(=O)n1-c1ccccc1)N1CCc2ccccc21 [Example 39d, 2-[2-(2,3-Dihydroindol-1-yl)-2-oxoethyl]-6-morpholin-4-yl-3-phenyl-3H-pyrimidin-4-one]"
–,15,"CC1Cc2c(Br)cccc2N1C(=O)Cc1nc(N2CCOCC2)c(F)c(=O)n1C (stereo not drawn) [Example 31a, 5-fluoro-2-[2-((−)-4-bromo-2-methyl-2,3-dihydroindol-1-yl)-2-oxoethyl]-3-methyl-6-morpholin-4-yl-3H-pyrimidin-4-one]"
–,380,"CCC1Cc2ccccc2N1C(=O)Cc1nc(N2CCOCC2)cc(=O)[nH]1 (single isomer, unassigned; (+)) [Example 42c, (+)-2-[2-(2-ethyl-2,3-dihydroindol-1-yl)-2-oxoethyl]-6-morpholin-4-yl-3H-pyrimidin-4-one]"
–,205,"O=C(Cc1nc(N2CCOCC2)cc(=O)[nH]1)N1c2ccccc2CC1c1ccccc1 (single isomer, unassigned; (+)) [Example 24d, (+)-6-(morpholin-4-yl)-2-{2-oxo-2-[2-phenyl-2,3-dihydro-1H-indol-1-yl]ethyl}pyrimidin-4(3H)-one]"

# Continued, molecule first:
Compound,"IC50 (Homo sapiens, PC-3, PC3 cells) [nM]",IC50 (PC3 cells) [nM]
"CC1Cc2c(F)cccc2N1C(=O)Cc1nc(N2CCOCC2)c(F)c(=O)[nH]1 (stereo not drawn) [Example 10a, 5-fluoro-2-[2-((+)-2-methyl-4-fluoro-2,3-dihydroindol-1-yl)-2-oxoethyl]-6-morpholin-4-yl-3H-pyrimidin-4-one]",–,116
CC1Cc2c(Cl)cccc2N1C(=O)Cc1nc(N2CCOCC2)c(F)c(=O)[nH]1 (stereo not shown) [Example 19a],–,19
"C[C@H]1Cc2ccccc2N1C(=O)Cc1nc(N2CCOCC2)c(F)c(=O)[nH]1 [Example 5a, 5-fluoro-2-{2-[(2S)-2-methyl-2,3-dihydro-1H-indol-1-yl]-2-oxoethyl}-6-(morpholin-4-yl)pyrimidin-4(3H)-one]",15,–
"CCC1CN(c2cc(=O)[nH]c(CC(=O)Nc3ccc(F)cc3)n2)CCO1 (racemic) [Example 14b, (±)-2-[4-(2-ethylmorpholin-4-yl)-6-oxo-1,6-dihydropyrimidin-2-yl]-N-(4-fluorophenyl)acetamide]",280,–
"CC1Cc2cc(F)ccc2N1C(=O)Cc1nc(N2CCOCC2)c(F)c(=O)n1C (stereo not drawn) [Example 15a, 5-fluoro-2-[2-((+)-5-fluoro-2-methyl-2,3-dihydroindol-1-yl)-2-oxoethyl]-3-methyl-6-morpholin-4-yl-3H-pyrimidin-4-one]",–,65
"CC1Cc2c(Cl)cccc2N1C(=O)Cc1nc(N2CCOCC2)cc(=O)[nH]1 (single isomer, unassigned; (+)) [Example 2c, (+)-2-{2-[4-chloro-2-methyl-2,3-dihydro-1H-indol-1-yl]-2-oxoethyl}-6-(morpholin-4-yl)pyrimidin-4(3H)-one]",–,5
"CC1Cc2cc(F)ccc2N1C(=O)Cc1nc(N2CCOCC2)cc(=O)n1C (single isomer, unassigned; (+)) [Example 15c, (+)-2-{2-[5-fluoro-2-methyl-2,3-dihydro-1H-indol-1-yl]-2-oxoethyl}-3-methyl-6-(morpholin-4-yl)pyrimidin-4(3H)-one]",–,28
"CC1Cc2c(ccc(F)c2F)N1C(=O)Cc1nc(N2CCOCC2)cc(=O)n1C (single isomer, unassigned; (-)) [Example 20c, (−)-2-{2-[4,5-difluoro-2-methyl-2,3-dihydro-1H-indol-1-yl]-2-oxoethyl}-3-methyl-6-(morpholin-4-yl)pyrimidin-4(3H)-one]",–,13
"O=C(Cc1nc(N2CCOCC2)cc(=O)[nH]1)N1CCc2c(-c3ccccc3F)cccc21 [Example 19d, 2-{2-[4-(2-fluorophenyl)-2,3-dihydro-1H-indol-1-yl]-2-oxoethyl}-6-(morpholin-4-yl)pyrimidin-4(3H)-one]",23,–
"Cn1c(CC(=O)N2CCc3c2cccc3C(F)(F)F)nc(N2CCOCC2)cc1=O [Example 4d, 3-methyl-6-(morpholin-4-yl)-2-{2-oxo-2-[4-(trifluoromethyl)-2,3-dihydro-1H-indol-1-yl]ethyl}pyrimidin-4(3H)-one]",63,–
"C[C@H]1Cc2ccccc2N1C(=O)Cc1nc(N2CCOCC2)c(F)c(=S)[nH]1 [Example 10e, 2-(5-fluoro-4-morpholin-4-yl-6-thioxo-1,6-dihydropyrimidin-2-yl)-1-((S)-2-methyl-2,3-dihydroindol-1-yl)ethanone]",221,–
"CC1Cc2c(Cl)cccc2N1C(=O)Cc1nc(N2CCOCC2)c(F)c(=O)[nH]1 (stereo not drawn) [Example 18a, 5-fluoro-2-[2-((+)-4-chloro-2-methyl-2,3-dihydroindol-1-yl)-2-oxoethyl]-6-morpholin-4-yl-3H-pyrimidin-4-one]",38,–
"CC1Cc2c(ccc(F)c2F)N1C(=O)Cc1nc(N2CCOCC2)c(F)c(=O)[nH]1 (stereo not drawn) [Example 20a, 2-[2-((−)-4,5-difluoro-2-methyl-2,3-dihydroindol-1-yl)-2-oxoethyl]-5-fluoro-6-morpholin-4-yl-3H-pyrimidin-4-one]",–,2
"CC1Cc2cc(F)ccc2N1C(=O)Cc1nc(N2CCOCC2)c(F)c(=O)[nH]1 (stereo not drawn) [Example 6a, 5-fluoro-2-[2-((+)-5-fluoro-2-methyl-2,3-dihydroindol-1-yl)-2-oxoethyl]-6-morpholin-4-yl-3H-pyrimidin-4-one]",–,10
"CC1CN(C(=O)Cc2nc(N3CCOCC3)cc(=O)[nH]2)c2cccc(O)c21 (single isomer, unassigned; (-)) [Example 12c, (−)-2-{2-[4-hydroxy-3-methyl-2,3-dihydro-1H-indol-1-yl]-2-oxoethyl}-6-(morpholin-4-yl)pyrimidin-4(3H)-one]",57,–
